Laboratory results published in patent US7285571B2, “Herbal chemical composition for the treatment of cancer” (Council of Scientific and Industrial Research, priority 2001, dated 2007).

Experiments:
Assay type in all cases: cell-based
MCF-7 = experiment: In vitro cytotoxicity (SRB), MCF-7; conditions: Homo sapiens, MCF7, MCF-7 (breast), 48-hours, read-out: Percent growth inhibition; for inhibition at 10 µg/mL: 10 μg/ml; for inhibition at 30 µg/mL: 30 μg/ml; for inhibition at 100 µg/mL: 100 μg/ml
Method: (§1) The human cancer cell lines were obtained either from National center for cell science, Pune, India or National Cancer Institute, Frederick, Md., U.S.A. Cells were grown in tissue culture flasks in complete growth medium (RPMI-1640 medium with 2 mM glutamine, 100 μg/ml streptomycin, pH 7.4, sterilized by filtration and supplemented with 10% sterilized fetal calf serum and 100 units/ml penicillin before use) at 37° C. in an atmosphere of 5% CO2 and 90% relative humidity in a carbon dioxide incubator (WTB binder, Germany). The cells at subconfluent stage were harvested from the flask by treatment with trypsin (0.05% trypsin in PBS containing 0.02% EDTA) and suspended in complete growth medium. Cells with cell viability of more than 97% by trypan blue exclusion technique were used for determination of cytotoxicity.
(§2) (−)-Matairesinol was dissolved in DMSO (dimethyl sulphoxide) to obtain a stock solution of 20 mg/ml. The stock solution was serially diluted with complete growth medium containing 50 μg/ml of gentamycin to obtain three working test solutions of 200, 60 and 20 μg/ml
(§3) The suspension of human cancer cell lines of required cell density in complete growth medium was prepared and cell suspension ([…] per wall) of each cell line) of 96-well tissue culture plate. Three additional wells of each cell line were also prepared for control. Two blank wells for control and each experimental and each experimental set for every cell line were also included that contained equivalent amount of complete growth medium only. The plates were incubated at 37° C. in an atmosphere of 5% CO2 and 90% relative humidity in a carbon dioxide incubator.
(§4) The working test solutions of (−)-Matairesinol of different concentrations (100 μl) were added after 24-hours incubation in all the wells including blanks of the experimental set. The equivalent amount of complete growth medium was added to control set.
(§5) The plates were further incubated for 48-hours (at 37° C. in an atmosphere of 5% CO2 and 90% relative humidity in a carbon dioxide incubator) after addition of test material etc. and then the cell growth was stopped by gently layering of 50 μl of TCA (50% trichloroacetic acid) on top of the medium in all the wells. The plates were incubated at 4° C. for one hour to fix the cells attached to the bottom of the wells. Liquids of all the wells were gently pipetted out and discarded. The plates were washed five times with distilled water to remove TCA, growth medium, low molecular weight metabolites, serum proteins etc. Plates were air-dried.
(§6) Cell growth was measured by staining with sulforhodamine B dye (SRB). The SRB solution (100 μl of 0.4% in 1% acetic acid) was added to each well and the plates were incubated at room temperature for 30 minutes. The unbound SRB was quickly removed by washing the wells five times with 1-% acetic acid and plates were air-dried. Tris-buffer (100 μl of 0.01 M, pH 10.4) was added to all the wells and plates were gently stirred for 5 minutes on a mechanical stirrer. The optical density was recorded on ELISA reader at 540 run.
(§7) The cell growth in presence of test material was determined by subtracting mean OD value of respective blank from the mean OD value of experimental set. Like wise, cell growth in absence of test material (control set) and in presence of positive control was also determined. The percent cell growth in presence of test material was determined considering the cell growth in absence of test material as 100% and in turn percent inhibition was calculated.

ZR-75-1 = experiment: In vitro cytotoxicity (SRB), ZR-75-1; conditions: Homo sapiens; ZR-75-1 (breast), 100 μg/ml, 48-hours; read-out: Percent growth inhibition
Method: as §1, with “Cells with cell viability of more than 97% by trypan blue exclusion technique were used for determination of cytotoxicity.” left out
(§8) Cell growth was measured by staining with sulforhodamine B dye (SRB). […] The optical density was recorded on ELISA reader at 540 run.
as §7

SiHa = experiment: In vitro cytotoxicity (SRB), SiHa; conditions: Homo sapiens, SiHa (cervix), 48-hours, read-out: Percent growth inhibition; for inhibition at 10 µg/mL: 10 μg/ml; for inhibition at 30 µg/mL: 30 μg/ml; for inhibition at 100 µg/mL: 100 μg/ml
Method: as §1, §2, §3, §4, §5, §6, §7

SKNMC = experiment: In vitro cytotoxicity (SRB), SKNMC; conditions: Homo sapiens, SK-N-MC; SKNMC (neuroblastoma), 100 μg/ml, 48-hours; read-out: Percent growth inhibition
Method: as §1, with “Cells with cell viability of more than 97% by trypan blue exclusion technique were used for determination of cytotoxicity.” left out
as §8, §7

IMR-32 = experiment: In vitro cytotoxicity (SRB), IMR-32; conditions: Homo sapiens; IMR-32 (neuroblastoma), 100 μg/ml, 48-hours; read-out: Percent growth inhibition
Method: as §1, with “Cells with cell viability of more than 97% by trypan blue exclusion technique were used for determination of cytotoxicity.” left out
as §8, §7

Colo-205 = experiment: In vitro cytotoxicity (SRB), Colo-205; conditions: Homo sapiens, Colo-205 (colon), 48-hours, read-out: Percent growth inhibition; for inhibition at 10 µg/mL: 10 μg/ml; for inhibition at 30 µg/mL: 30 μg/ml; for inhibition at 100 µg/mL: 100 μg/ml
Method: as §1, §2, §3, §4, §5, §6, §7

HT-29 = experiment: In vitro cytotoxicity (SRB), HT-29; conditions: Homo sapiens, HT-29 (colon), 48-hours, read-out: Percent growth inhibition; for inhibition at 30 µg/mL: 30 μg/ml; for inhibition at 100 µg/mL: 100 μg/ml
Method: as §1, §2, §3, §4
The plates were further incubated for 48-hours (at 37° C. in an atmosphere of 5% CO2 and 90% relative humidity in a carbon dioxide incubator) after addition of test material etc. and then the cell growth was stopped by gently layering of 50 μl of TCA (50% trichloroacetic acid) on top of the medium in all the wells. […]
as §8, §7

SW-620 = experiment: In vitro cytotoxicity (SRB), SW-620; conditions: Homo sapiens, SW-620 (colon), 48-hours, read-out: Percent growth inhibition; for inhibition at 30 µg/mL: 30 μg/ml; for inhibition at 100 µg/mL: 100 μg/ml
Method: as §1, §2, §3, §4, §5
as §6, with “Tris-buffer (100 μl of 0.01 M, pH 10.4) was added to all the wells and plates were gently stirred for 5 minutes on a mechanical stirrer.” left out
as §7

Hep-2 = experiment: In vitro cytotoxicity (SRB), Hep-2; conditions: Homo sapiens; Hep-2 (liver), 100 μg/ml, 48-hours; read-out: Percent growth inhibition
Method: as §1, with “Cells with cell viability of more than 97% by trypan blue exclusion technique were used for determination of cytotoxicity.” left out
as §8, §7

A-549 = experiment: In vitro cytotoxicity (SRB), A-549; conditions: Homo sapiens, A549, A-549 (lung), 48-hours, read-out: Percent growth inhibition; for inhibition at 10 µg/mL: 10 μg/ml; for inhibition at 30 µg/mL: 30 μg/ml; for inhibition at 100 µg/mL: 100 μg/ml
Method: as §1, §2, §3, §4, §5, §6, §7

cancer cells of breast = experiment: Growth inhibition of cancer cells of breast; conditions: Homo sapiens; concentration of about 100 μg/ml; MCF-7 and ZR-75-1; read-out: inhibits the growth of cancer cells of breast
Method: as §1, with “Cells with cell viability of more than 97% by trypan blue exclusion technique were used for determination of cytotoxicity.” left out
as §8, §7

cancer cells of cervix = experiment: Growth inhibition of cancer cells of cervix; conditions: Homo sapiens; concentration of about 100 μg/ml; SiHa; read-out: inhibits the growth of cancer cells of cervix
Method: as §1, with “Cells with cell viability of more than 97% by trypan blue exclusion technique were used for determination of cytotoxicity.” left out
as §8, §7

[1] = tested on: cancer cells of neuroblastoma; experiment: Growth inhibition of cancer cells of neuroblastoma; conditions: Homo sapiens; concentration of about 100 μg/ml; SKNMC and IMR-32; read-out: inhibits the growth of cancer cells of neuroblastoma
Method: as §1, with “Cells with cell viability of more than 97% by trypan blue exclusion technique were used for determination of cytotoxicity.” left out
as §8, §7

cancer cells of colon = experiment: Growth inhibition of cancer cells of colon; conditions: Homo sapiens; concentration of about 100 μg/ml; Colo-205, HT-29 and SW-620; read-out: inhibits the growth of cancer cells of colon
Method: as §1, with “Cells with cell viability of more than 97% by trypan blue exclusion technique were used for determination of cytotoxicity.” left out
as §8, §7

cancer cells of liver = experiment: Growth inhibition of cancer cells of liver; conditions: Homo sapiens; concentration of about 100 μg/ml; Hep-2; read-out: inhibits the growth of cancer cells of liver
Method: as §1, with “Cells with cell viability of more than 97% by trypan blue exclusion technique were used for determination of cytotoxicity.” left out
as §8, §7

cancer cells of lung = experiment: Growth inhibition of cancer cells of lung; conditions: Homo sapiens, A549; concentration of about 100 μg/ml; A-549; read-out: inhibits the growth of cancer cells of lung
Method: as §1, with “Cells with cell viability of more than 97% by trypan blue exclusion technique were used for determination of cytotoxicity.” left out
as §8, §7

human cancer cell lines = experiment: In vitro cytotoxicity against the human cancer cell lines studied (panel); conditions: for inhibition of cell growth of the human cancer cell lines studied (in words): 10, 30 and 100 μg/ml; for inhibition at 100 µg/mL: Homo sapiens, at 100 μg/ml, read-out: inhibition of cell growth, range over the human cancer cell lines studied
Method: as §1, §2, §3
The working test solutions of (−)-Matairesinol of different concentrations (100 μl) were added after 24-hours incubation in all the wells including blanks of the experimental set. The equivalent amount of complete growth medium was added to control set. […]
as §8, §7
In vitro cytotoxicity of (−)-matairesinol was determined against human breast (MCF-7 & ZR-75-1), neuroblastoma (SK-N-MC & IMR-32), cervix (SiHa), colon (Colo-205, HT-29 & SW-620), liver (HEP-2) and lung (A-549) cancer cell lines. […]

For `COc1cc(CC2COC(=O)C2(O)Cc2ccc(O)c(OC)c2)ccc1O` (stereo in doubt) [(−)-Wikstromol], the inhibition at 10 µg/mL (MCF-7) was 7%, the inhibition at 30 µg/mL (MCF-7) was 26% and the inhibition at 100 µg/mL (MCF-7) was 51%. For the same compound, the inhibition at 100 µg/mL (ZR-75-1) was 37%, the inhibition at 10 µg/mL (SiHa) was 16% and the inhibition at 30 µg/mL (SiHa) was 21%. For the same compound, the inhibition at 100 µg/mL (SiHa) was 37%, the inhibition at 100 µg/mL (SKNMC) was 44% and the inhibition at 100 µg/mL (IMR-32) was 56%. The inhibition at 10 µg/mL (Colo-205) was 5%, the inhibition at 30 µg/mL (Colo-205) was 27% and the inhibition at 100 µg/mL (Colo-205) was 67%. It also gave an inhibition at 30 µg/mL (HT-29) of 6%, an inhibition at 100 µg/mL (HT-29) of 32% and an inhibition at 10 µg/mL (SW-620; 10 μg/ml) of 14%. It also gave an inhibition at 30 µg/mL (SW-620) of 20%, an inhibition at 100 µg/mL (SW-620) of 50% and an inhibition at 100 µg/mL (Hep-2) of 46%. The inhibition at 10 µg/mL (A-549) was 21%, the inhibition at 30 µg/mL (A-549) was 37% and the inhibition at 100 µg/mL (A-549) was 56%. It also gave an inhibition at 100 µg/mL (cancer cells of breast) of at most 51%, an inhibition at 100 µg/mL (cancer cells of cervix) of at most 37% and an inhibition at 100 µg/mL [1] of at most 56%. The inhibition at 100 µg/mL (cancer cells of colon) was at most 67%, the inhibition at 100 µg/mL (cancer cells of liver) was at most 46% and the inhibition at 100 µg/mL (cancer cells of lung) was at most 56%. For the same compound, the “inhibition of cell growth of the human cancer cell lines studied (in words)” value (human cancer cell lines) was “dose dependent inhibition of cell growth” and the inhibition at 100 µg/mL (human cancer cell lines) was 32 to 67%.
`COc1cc(C[C@H]2COC(=O)[C@@H]2Cc2ccc(O)c(OC)c2)ccc1O` [(−)-Matairesinol] was tested, and the inhibition at 10 µg/mL (MCF-7) was 10%, the inhibition at 30 µg/mL (MCF-7) was 36% and the inhibition at 100 µg/mL (MCF-7) was 54%. The inhibition at 100 µg/mL (ZR-75-1) was 62%, the inhibition at 10 µg/mL (SiHa) was 10% and the inhibition at 30 µg/mL (SiHa) was 29%. For the same compound, the inhibition at 100 µg/mL (SiHa) was 63%, the inhibition at 100 µg/mL (SKNMC) was 75% and the inhibition at 100 µg/mL (IMR-32) was 77%. The inhibition at 10 µg/mL (Colo-205) was 15%, the inhibition at 30 µg/mL (Colo-205) was 28% and the inhibition at 100 µg/mL (Colo-205) was 93%. It also gave an inhibition at 30 µg/mL (HT-29) of 10%, an inhibition at 100 µg/mL (HT-29) of 74% and an inhibition at 30 µg/mL (SW-620) of 11%. For the same compound, the inhibition at 100 µg/mL (SW-620) was 68%, the inhibition at 100 µg/mL (Hep-2) was 64% and the inhibition at 10 µg/mL (A-549) was 19%. For the same compound, the inhibition at 30 µg/mL (A-549) was 33%, the inhibition at 100 µg/mL (A-549) was 65% and the inhibition at 100 µg/mL (cancer cells of breast) was at most 62%. For the same compound, the inhibition at 100 µg/mL (cancer cells of cervix) was at most 63%, the inhibition at 100 µg/mL [1] was at most 77% and the inhibition at 100 µg/mL (cancer cells of colon) was at most 93%. For the same compound, the inhibition at 100 µg/mL (cancer cells of liver) was at most 64%, the inhibition at 100 µg/mL (cancer cells of lung) was at most 65% and the “inhibition of cell growth of the human cancer cell lines studied (in words)” value (human cancer cell lines) was “dose dependent inhibition of cell growth”. It also gave an inhibition at 100 µg/mL (human cancer cell lines) of 54 to 93%.
